Source: PMC9959130, “Effects of Side Chain and Peptide Bond Modifications on the Targeting Properties of Stabilized Minigastrin Analogs” (Pharmaceuticals, 2023)
Like-named read-outs stand apart in the source and are kept apart here. One block for each compound: values may come before it.

Tests used:
[1] = biological target: T1, human CCK2R (Homo sapiens, UniProt P32239); experiment: Calcium mobilization assay (fluo-4 AM) on A431-CCK2R cells; format: cell-based; settings: normalized to 10^−6 M pentagastrin, mean ± SEM of at least three independent experiments in triplicates
T1 construct: expressed in transfected cells; host or cells: A431 human epidermoid carcinoma cells, stably transfected (A431-CCK2R); originally provided by Dr. Luigi Aloj
T1 sequence (P32239 1-447): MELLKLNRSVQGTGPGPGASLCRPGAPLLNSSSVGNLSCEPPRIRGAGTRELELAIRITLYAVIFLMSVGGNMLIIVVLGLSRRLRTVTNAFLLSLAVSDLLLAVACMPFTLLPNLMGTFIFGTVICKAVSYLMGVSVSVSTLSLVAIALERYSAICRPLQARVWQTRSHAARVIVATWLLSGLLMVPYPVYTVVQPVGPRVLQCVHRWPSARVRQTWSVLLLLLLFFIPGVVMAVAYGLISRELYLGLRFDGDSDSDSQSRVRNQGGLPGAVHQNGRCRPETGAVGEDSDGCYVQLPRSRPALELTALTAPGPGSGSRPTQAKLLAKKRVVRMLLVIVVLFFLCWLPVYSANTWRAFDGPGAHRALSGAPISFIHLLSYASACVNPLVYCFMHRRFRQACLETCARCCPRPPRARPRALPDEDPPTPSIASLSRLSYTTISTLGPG
Source text: A431 human epidermoid carcinoma cells overexpressing human CCK2R through stable transfection (A431-CCK2R) and the same cell line transfected with the empty vector (A431-mock) were used for cell assays. The cells are constantly available in our laboratory and were originally provided by Dr. Luigi Aloj. All cell culture media and reagents were obtained from Invitrogen Corporation (Lofer, Austria) or Sigma-Aldrich (Darmstadt, Germany). Dulbecco’s modified Eagle’s medium (DMEM) supplemented with 10% (v/v) fetal bovine serum and 1% of 100x penicillin−streptomycin−glutamine was used for cell culture. The cells were passaged three times per week using a 10x 2.5% trypsin-EDTA solution in a 1:2–1:3 ratio.
Analog-induced receptor activation was evaluated by a calcium mobilization assay using the calcium-sensitive dye fluo-4 AM (ThermoFisher Scientific, Montigny-Le-Bretonneux, France), as previously described. Briefly, A431-CCK2R cells were seeded (60,000/well) in flat clear bottom black 96-well plates (Corning, Bagneaux-sur-Loing, France) coated with poly-L-ornithine (100 µg/mL, 1 h, 37 °C) (Sigma Aldrich, Saint Quentin Fallavier, France). Cytosolic Ca^2+ variations were measured before and after application of 50 µL of graded concentrations of the investigated peptides in the vicinity of the cells, and the effects on Ca^2+ mobilization were measured. Data were background corrected and normalized for the amplitudes caused by the medium alone (0%, no self-effect) or 10^−6 M pentagastrin (100%, maximal Ca^2+ mobilization response). Prism 4.0 software was used to calculate the EC50 values and the results were expressed as mean ± SEM for at least three independent experiments performed in triplicates.

[2] = cited from earlier work
Description: (−2.33 ± 0.23) > [^111In]In-DOTA-MGS5 (−2.0 ± 0.1) > [^111In]In-DOTA-[2Nal^8]MGS5 (−1.71 ± 0.19) > [^111In]In-DOTA-[DLys^1]MGS5 (−1.31 ± 0.11). […] For the time point of 24 h after incubation, lowest values were found for [^111In] ...

[3] = Biodistribution in BALB/c nude mice bearing A431-CCK2R/A431-mock xenografts; format: in vivo; settings: female, mouse, iv, 20 pmol, total radioactivity, 20 pmol, gallium-68, 1 h p.i., mean ± SD n = 4; for tissue uptake at 1 h: xenografted BALB/c nude mice, i.v.; for tissue to tissue ratio at 1 h: BALB/c nude mice
Description: The overall biodistribution and tumor targeting properties of selected radiolabeled peptides were evaluated in female athymic BALB/c nude mice (Charles River, Sulzfeld, Germany, age of 7 to 9 weeks). After tumor induction with 2 × 10^6 A431-CCK2R or A431-mock cells (subcutaneously injected in 200 μL DMEM into the right and left flank) and a waiting period of 10–14 days (sufficient to achieve tumors of ∼0.25 g), mice were randomly divided into groups of four and treated with a bolus injection of 150 µL of the injectable solution containing the radiolabeled peptide via a lateral tail vein to achieve an injected radioactivity of 150–200 kBq and a total injected peptide amount of ~20 pmol (n = 4 for each radiopeptide). For DOTA-[(N-Me)1Nal^8]MGS5, additional biodistribution studies were performed with gallium-68 (~0.5 MBq, 20 pmol) and lutetium-177 (~0.5 MBq, 20 pmol). The animals were euthanatized by cervical dislocation at 1 h (gallium-68) or 4 h p.i. (indium-111/ lutetium-177). The tumors and other tissues (blood, lung, heart, muscle, spleen, intestine, liver, kidney, stomach, and pancreas) were dissected, weighed, and the radioactivity measured in the γ-counter. The rest of the body and a standard of the solution injected was also measured together with the collected samples. The percentage of injected activity per gram of tissue (% IA/g) and the tumor-to-organ activity ratio of selected tissues were calculated for each mouse and time point studied. Origin software (Microcal Origin 6.1, Northampton, MA, USA) was used for statistical analysis (independent t-test for two populations; significance level p < 0.05).

[4] = Distribution coefficient (LogD) in octanol/PBS; format: physicochemical; settings: radiolabeled peptide (111In-labeled where the label names no radiometal); shake-flask octanol/PBS, 100 pmol/mL, 15 min shaking at 1500 rpm, γ-counter; mean ± SD, n = 8
Description: The distribution coefficient (LogD) in octanol/PBS was determined by mixing 0.5 mL of the radiolabeled DOTA peptides diluted in PBS (100 pmol/mL) and 0.5 mL octanol in a 1.5 mL microcentrifuge tube (n = 8). After shaking for 15 min (MS3 Basic, IKA, Staufen, Germany) at 1500 rpm and a waiting time of 10 min to ensure appropriate separation of the two phases, 100 µL aliquots of each phase were pipetted into 4.5 mL tubes. The tubes were measured using a γ-counter (2480 Wizard2 3″, PerkinElmer Life Sciences and Analytical Instruments, formerly Wallac Oy, Turku, Finland) and the LogD value was determined using following equation: LogD=Log(cpmoctanol phase/cpmPBS phase)

[5] = Complex stability in PBS; format: physicochemical; settings: 1000 pmol/mL in PBS, room temperature, 4 h after incubation, n = 1
Description: In vitro stability studies were performed in human serum (n = 2). The radiolabeled peptides (1000 pmol/mL) were incubated at 37 °C and a sample of 100 μL was taken at 1, 4, and 24 h after incubation. After the precipitation of proteins with ACN at 1:1.5 (v/v), centrifugation (14,000 rpm, 2 min, centrifuge 5424, Eppendorf AG, Germany) and dilution with water at 1:1 (v/v), an aliquot of 100 μL of this solution was analyzed by HPLC. Radioligand breakdown was monitored and the percentage of intact radiopeptide was calculated using Chromeleon Dionex Software (Version 7.2.9.11323). Additionally, the radiolabeled peptides (1000 pmol/mL) were incubated in PBS (n = 1) at room temperature to confirm the complex stability as a control.

[6] = Metabolic studies in BALB/c mice (intact radiopeptide by radio-HPLC); format: in vivo; settings: i.v., 2 nmol, 10 min p.i., two animals per peptide
Description: All animal experiments were approved by the Austrian Ministry of Science (BMWF-66.011/0075- WF/V/3b/2016) and performed in accordance with the Austrian Animal Protection Act. Metabolic studies characterizing the stability of selected radioligands against enzymatic degradation were carried out in 7 to 8 week old female BALB/c mice (Charles River, Sulzfeld, Germany). The mice (two animals for each peptide) were intravenously injected into a lateral tail vein with 5–10 MBq of the ^111In-labeled peptide derivatives, corresponding to 2 nmol total peptide. At the time point of 10 min p.i. the animals were euthanatized by cervical dislocation. A sample of urine and blood was immediately collected. Liver and kidneys were dissected, mixed with 20 mM HEPES buffer pH 7.3 (1:1, w/v) and homogenized using an Ultra-Turrax T8 homogenizer (IKA-Werke, Staufen, Germany) for 1 min. All samples taken were analyzed by analytical HPLC using the low-sensitivity loop for urine and the high-sensitivity loop for blood, liver and kidney. Before injection into the HPLC system, all samples except urine were treated with ACN and diluted with water as described for stability studies in human serum. The percentage of intact radiopeptide in the analyzed samples was calculated by integration of the different peaks found in the radiochromatogram using Chromeleon Dionex Software (Version 7.2.9.11323).

EC50 [1]: 7.9 ± 1.9 nM
SMILES: CCCC[C@@H](C(=O)N[C@@H](CC(=O)O)C(=O)N[C@@H](Cc1cccc2ccccc12)C(N)=O)N(C)C(=O)[C@H](Cc1c[nH]c2ccccc12)NC(=O)CNC(=O)[C@H](Cc1ccc(O)cc1)NC(=O)[C@H](C)NC(=O)[C@@H](CCC(=O)O)NC(=O)CN1CCN(CC(=O)O)CCN(CC(=O)O)CCN(CC(=O)O)CC1 [DOTA-MGS5, DOTA-DGlu-Ala-Tyr-Gly-Trp-(N-Me)Nle-Asp-1Nal-NH2, reference compound]
LogD [2]: −2.0 ± 0.1

tissue uptake at 1 h ([3]; BALB/c nude, heart, read-out: Uptake in heart): 0.95 ± 0.32 %ID/g | tissue uptake at 1 h ([3]; BALB/c nude, intestine, read-out: Uptake in intestine): 0.82 ± 0.18 %ID/g | tissue uptake at 1 h ([3]; BALB/c nude, lung, read-out: Uptake in lung): 1.61 ± 0.42 %ID/g | tissue uptake at 1 h ([3]; BALB/c nude, muscle, read-out: Uptake in muscle): 0.45 ± 0.08 %ID/g | tissue uptake at 1 h ([3]; BALB/c nude, spleen, read-out: Uptake in spleen): 1.19 ± 0.25 %ID/g | tissue to tissue ratio at 1 h ([3]; athymic BALB/c nude, A431-CCK2R xenograft / blood, A431-CCK2R xenograft, read-out: tumor-to-organ ratio: blood): 6.03 ± 2.26 | tissue to tissue ratio at 1 h ([3]; athymic BALB/c nude, A431-CCK2R xenograft / kidney, A431-CCK2R xenograft, read-out: tumor-to-organ ratio: kidney): 2.36 ± 1.14 | tissue to tissue ratio at 1 h ([3]; athymic BALB/c nude, A431-CCK2R xenograft / stomach, A431-CCK2R xenograft, read-out: tumor-to-organ ratio: stomach): 10.2 ± 3.5 | tissue uptake at 1 h ([3]; athymic BALB/c nude, A431-CCK2R xenograft, read-out: Uptake in A431-CCK2R xenograft): 15.7 ± 2.21 %ID/g | tissue uptake at 1 h ([3]; athymic BALB/c nude, A431-mock xenograft, read-out: Uptake in A431-mock xenograft): 1.51 ± 0.98 %ID/g | tissue uptake at 1 h ([3]; athymic BALB/c nude, blood, read-out: Uptake in blood): 2.82 ± 0.88 %ID/g | tissue uptake at 1 h ([3]; athymic BALB/c nude, kidneys, read-out: Uptake in kidneys): 7.7 ± 3.1 %ID/g | tissue uptake at 1 h ([3]; athymic BALB/c nude, liver, read-out: Uptake in liver): 2.25 ± 0.55 %ID/g | tissue uptake at 1 h ([3]; athymic BALB/c nude, pancreas, read-out: Uptake in pancreas): 0.87 ± 0.29 %ID/g | tissue uptake at 1 h ([3]; athymic BALB/c nude, stomach, read-out: Uptake in stomach): 1.63 ± 0.41 %ID/g | LogD [4]: −2.2 ± 0.1 | Stability of the DOTA-complex in PBS [5]: 99.2%
SMILES: CCCC[C@@H](C(=O)N[C@@H](CC(=O)O)C(=O)N(C)[C@@H](Cc1cccc2ccccc12)C(N)=O)N(C)C(=O)[C@H](Cc1c[nH]c2ccccc12)NC(=O)CNC(=O)[C@H](Cc1ccc(O)cc1)NC(=O)[C@H](C)NC(=O)[C@@H](CCC(=O)O)NC(=O)CN1CCN(CC(=O)O)CCN(CC(=O)O)CCN(CC(=O)O)CC1 [[^68Ga]Ga-DOTA-[(N-Me)1Nal^8]MGS5, metal not drawn]

Intact radiopeptide in kidney ([6]; kidney homogenate): 40.2 ± 4.1% | Intact radiopeptide in liver ([6]; liver homogenate): 94.9 ± 2.8% | Intact radiopeptide in blood [6]: 98.4 ± 0.1% | Intact radiopeptide in urine [6]: 15.9 ± 3.4% | Stability of the DOTA-complex in PBS [5]: 96.2%
SMILES: CCCC[C@@H](C(=O)N[C@@H](CC(=O)O)C(=O)N(C)[C@@H](Cc1cccc2ccccc12)C(N)=O)N(C)C(=O)[C@H](Cc1c[nH]c2ccccc12)NC(=O)CNC(=O)[C@H](Cc1ccc(O)cc1)NC(=O)[C@H](C)NC(=O)[C@@H](CCC(=O)O)NC(=O)CN1CCN(CC(=O)O)CCN(CC(=O)O)CCN(CC(=O)O)CC1 [[^111In]In-DOTA-[(N-Me)1Nal^8]MGS5] [metal not drawn]
